Common to all, as to format: in vivo
For test [1], the system named is rice sheath blight strains. Description: Bactericidal activity test: resistance to rice sheath blight (live pot test). The settings on record: for pest or weed control at 400 µg/mL: Oryza sativa, 144 h; for bactericidal activity against rice sheath blight: result in words. As to the method:
Bactericidal activity test, the determination procedure is as follows: Test of resistance to rice sheath blight: Select uniformly growing rice seedlings and spray them on the leaves at the set concentration, set a water sprayring group as blank control, every treatment was repeated twice. After 24h, the rice seedlings were inoculated with rice sheath blight strains and placed at room temperature (25±4°C) for normal management after inoculation. The prevention and control effect was investigated by visual inspection 6 days after inoculation.

Test [2] deals with tobacco Mosaic virus (TMV). As to the kind of experiment: Anti-TMV activity: live protection function. The settings on record: for inhibition at 500 µg/mL: Tobacco mosaic virus, read-out: Relative inhibition rate (%) Live protection function; for TMV activity: compared with ribavirin. On the procedure:
(§1) Determination of anti-tobacco Mosaic virus (TMV) activity by the following procedure:
(§2) The virus crude extract was centrifuged with polyethylene glycol at twice and refrigerated at 4°C for use. The absorbance of 260nm wavelength was determined by ultraviolet spectrophotometer, and the virus concentration was calculated according to the formula. Virus concentration(mg/ml) = (A260 × dilution ratio)(/E)^0.10 1cm^260nm . [formula]
(§3) After weighing, cryptolepine salt derivative, ningnanmycin and the original drug of ribavirin were dissolved in DMF to obtain 1×10^5µg/mL mother solution, and then diluted to the required concentration with 1‰ Tween 80 aqueous solution.
Select the 3-5 leaf stage of tobacco Xanthi nc with uniform growth, spray the whole plant, repeat each treatment 3 times, and set 1‰ Tween80 aqueous solution as control. 24h later, the leaf surface was coated with emery (500 mesh), the disease venom was dipped with a brush, and the whole leaf surface was gently rubbed twice along the direction of the branch pulse by using the brush, the leaf was supported by palm of hand, the virus concentration was 10µg/mL, and the leaf was washed by water after inoculation. After 3 days, the number of disease spots was recorded and the prevnetion and control effect was calculated.

Test [3] deals with tobacco Mosaic virus (TMV). As to the kind of experiment: Anti-TMV activity: live treatment effect. The settings on record: for inhibition at 500 µg/mL: Tobacco mosaic virus, 72 h, read-out: Relative inhibition rate (%) Live treatment effect. As to the method: as §1, §2, §3
Select the 3-5 leaf stage of tobacco Xanthi nc with uniform growth, use a brush to vaccinate the virus in the whole leaf, the virus concentration is 10µg/mL, and the leaf was washed with running water after inoculation. After the leaves were dried, the whole plant was sprayed with test sample, repeated 3 times every treatment, and 1‰ Tween 80 aqueous solution was set as control. After 3 days, the number of disease spots was recorded and the prevnetion and control effect was calculated.

Test [4] relates to tobacco Mosaic virus (TMV). As to the kind of experiment: Anti-TMV activity: living passivation activity test. The settings on record: for inhibition at 500 µg/mL: Tobacco mosaic virus, read-out: Relative inhibition rate (%) Living passivation activity test. On the procedure:
as §1, §2, §3
Select the 3-5 leaf stage of tobacco Xanthi nc with uniform growth, mix the test sample agent with the same volume of virus juice to passivate for 30min, friction inoculation, virus concentration 20µg/mL, the leaf was washed with running water after inoculation, repeat 3 times, set 1‰ Tween 80 aqueous solution as control. 3 days later, the number of disease spots was calculated. [formula]
Anti-tobacco Mosaic virus passivation activity test of all compounds was at a treatment dose of 500µg/mL. The positive control was the commercial anti-plant virus agent viriazole.

[5] abbreviates: 400mg/L leaf spray on rice seedlings, inoculated after 24h, visual inspection 6 days after inoculation, read-out: Resistance to rice sheath blight (%)/400mg/L.
The mark [6] stands for this setting: read-out: Resistance to rice sheath blight (%)/400mg/L.
Where [7] appears, read: read-out: bactericidal activity against rice sheath blight.
The mark [8] stands for this setting: Treatment dose 500 mg/L, tobacco Xanthi nc sprayed 24h before inoculation, virus 10µg/mL, disease spots counted after 3 days.
Setting [9] is: Treatment dose 500 mg/L, tobacco Xanthi nc inoculated (virus 10µg/mL), then sprayed, disease spots counted after 3 days.
Where [10] appears, read: Treatment dose 500 mg/L, sample mixed with virus juice for 30min, then inoculated on tobacco Xanthi nc, virus 20µg/mL, 3 days.
[11] abbreviates: live pot test, summary of Table 5 (400mg/L).
Where [12] appears, read: 500µg/mL, Table 4 (all three modes).

Like-named read-outs stand apart in the source and are kept apart here.

Usually inhibition stands for how much of the control response was suppressed.

For the molecule `Cc1nc(C(F)(F)F)c(C(=O)Nc2c(Br)cc(OC(F)(F)F)cc2Br)s1` [Thifluzamide, reference compound], the pest or weed control at 400 µg/mL in test [1] (setting [5]) worked out at 100%.
As to `Cc1ccc(S(=O)(=O)n2c3ccccc3c3c2cc2ccccc2[n+]3C)cc1` [Example 1], the inhibition at 500 µg/mL in test [2] is 18.9 ± 2.6%; in test [3] it was 20.3 ± 1.1%; in test [4], 18.5 ± 0.6%. Moreover, the figures for the pest or weed control at 400 µg/mL in test [1] (setting [6]) and in test [1] (setting [7]) were 95 ± 5% and > 95%, respectively.
With `C[n+]1c2ccccc2c(NCC2CCCCC2)c2[nH]c3ccccc3c21` [Example 30], the inhibition at 500 µg/mL was found to be 20.9 ± 2.9% in test [2], 21.5 ± 1.1% in test [3] and 30 ± 0.8% in test [4]. Also, in test [1] (setting [5]), the pest or weed control at 400 µg/mL turned out to be 35 ± 5%.
With `NC(=O)c1ncn([C@@H]2O[C@H](CO)[C@@H](O)[C@H]2O)n1` [ribavirin, reference compound], the results for the inhibition at 500 µg/mL in test [2] (setting [8]), in test [3] (setting [9]) and in test [4] (setting [10]) were 39.5 ± 2%, 36.1 ± 3.7% and 38 ± 1.3%, respectively.
Take `CNCCCNc1c2ccccc2[n+](C)c2c1[nH]c1ccccc12` [Example 38]: the figures for the inhibition at 500 µg/mL in test [2], in test [3] and in test [4] were 35 ± 4.1%, 40.2 ± 1% and 30.7 ± 1.2%, respectively. Besides, the pest or weed control at 400 µg/mL in test [1] (setting [5]) turned out to be 30%.
Taken in the same sequence, the figures for `C[n+]1c2ccccc2c(NCC2CCCNC2)c2[nH]c3ccccc3c21` (stereo not drawn) [Example 43] were 26.1 ± 1%, 28.3 ± 0.2%, 30 ± 2.1% and 30%.
Turning to `COc1ccc2c(c1)c1c(cc3ccccc3[n+]1C)n2S(=O)(=O)c1ccc(C)cc1` [Example 3], the figures for the inhibition at 500 µg/mL in test [2], in test [3] and in test [4] were 18.1 ± 3.1%, 19.1 ± 0.1% and 20.3 ± 0.2%, respectively. For the same molecule, the pest or weed control at 400 µg/mL in test [1] (setting [6]) worked out at 35 ± 5%.
As to `C[n+]1c2ccccc2c(NCCN)c2[nH]c3ccccc3c21` [Example 32], the inhibition at 500 µg/mL in test [2] amounted to 25.1 ± 4.3%; in test [3], 30.1 ± 0.4%; in test [4], 28.7 ± 2.1%. The pest or weed control at 400 µg/mL in test [1] (setting [5]) was found to be 30%.
As to `Cn1c2c3cc(Br)ccc3nc-2cc2ccccc21` [Reference Example 1, 5-methyl-7-bromo 5H-indolo[3,2-b]quinoline, reference compound], the inhibition at 500 µg/mL in test [2] (setting [8]) came out at 15.1 ± 2%; in test [3] (setting [9]), 10.5 ± 3%; in test [4] (setting [10]), 10.2 ± 1.8%. Moreover, the pest or weed control at 400 µg/mL in test [1] (setting [5]) stood at 0%. Besides, in test [1] (setting [11]), the “bactericidal activity against rice sheath blight” value is reported as “no activity”.
For `C[n+]1c2ccccc2c(NCC2CCNCC2)c2[nH]c3ccccc3c21.[I-]` [Example 42], the “Relative inhibition rate (%) Live protection function” value in test [2] (setting [8]) was determined as 28.1±3.0%. In addition, the “Relative inhibition rate (%) Live treatment effect” value in test [3] (setting [9]) is reported as 30.2±2.1%. Moreover, the “Relative inhibition rate (%) Living passivation activity test” value in test [4] (setting [10]) is given as 25.1±0.2%. Moreover, in test [1] (400mg/L leaf spray on rice seedlings, inoculated after 24h, visual inspection 6 days after inoculation), the “Resistance to rice sheath blight (%)/400mg/L” value worked out at 25±5%.
As for `Cc1ccc(S(=O)(=O)n2c3ccccc3c3c2cc2cc(C(F)(F)F)ccc2[n+]3C)cc1` [Example 14], the values for the inhibition at 500 µg/mL in test [2], in test [3] and in test [4] were 15.3 ± 1.2%, 18.9 ± 1.2% and 20.1 ± 1.5%, respectively. The pest or weed control at 400 µg/mL was 60% in test [1] (setting [6]) and > 50% in test [1] (setting [7]).
Consider `Cc1ccc(S(=O)(=O)n2c3ccc(F)cc3c3c2cc2ccccc2[n+]3C)cc1` [Example 4], for which the inhibition at 500 µg/mL in test [2] amounted to 21.6 ± 3.4%; in test [3], 18.6 ± 1.2%; in test [4], 14.1 ± 1.3%. Besides, the pest or weed control at 400 µg/mL in test [1] (setting [6]) was 60%; in test [1] (setting [7]), > 50%.
With `C[n+]1c2ccccc2c(N2CCN(CCN)CC2)c2[nH]c3ccc(Cl)cc3c21` [Reference Example 2, reference compound], the inhibition at 500 µg/mL in test [2] came to 15.2 ± 1.1%; in test [3] it was 18.1 ± 0.2%; in test [4], 15.3 ± 2.1%. For the same molecule, the pest or weed control at 400 µg/mL in test [1] (setting [5]) is 0%. For the same molecule, the “bactericidal activity against rice sheath blight” value in test [1] (setting [11]) was “no activity”.
On to `Cc1ccc(S(=O)(=O)n2c3ccc(Cl)cc3c3c2cc2ccccc2[n+]3C)cc1` [Example 5], for which the antiTMV activity entry in test [2] (500µg/mL, compared with commercial Ningnanmycin, Table 4 (all three modes)) was “comparable to that of commercial Ningnanmycin”. Also, in test [2] (setting [12]), the TMV activity result is “better TMV activity than the ribavirin”. The inhibition at 500 µg/mL turned out to be 46.7 ± 4.1% in test [2], 35.8 ± 4.8% in test [3] and 39.3 ± 2.5% in test [4]. The pest or weed control at 400 µg/mL in test [1] (setting [6]) is 55 ± 5%; in test [1] (setting [7]), > 50%.
Regarding `CNCC(=O)N[C@@H](CO)C(=O)N[C@H]1[C@H](O)[C@@H](O)[C@H](n2ccc(N)nc2=O)O[C@@H]1C(N)=O` [Ningnanmycin, reference compound], the inhibition at 500 µg/mL in test [2] is 58.3 ± 4.1%; in test [3], 56.9 ± 2.8%; in test [4] it was 59 ± 2.2%.
Consider `C[n+]1c2ccccc2c(NCC2CC2)c2[nH]c3ccccc3c21` [Example 28], for which the inhibition at 500 µg/mL in test [2] worked out at 20.5 ± 1.7%; in test [3], 19.6 ± 0.2%; in test [4] it was 25.3 ± 1.2%. The pest or weed control at 400 µg/mL in test [1] (setting [5]) is 60%; in test [1] (live pot test, summary of Table 5 (400mg/L), read-out: bactericidal activity against rice sheath blight) it was > 50%.
Regarding `Cc1ccc(S(=O)(=O)n2c3ccccc3c3c2cc2ccccc2[n+]3CC2CCCCC2)cc1` [Example 19], the TMV activity entry in test [2] (setting [12]) was “better TMV activity than the ribavirin”. Besides, the results for the inhibition at 500 µg/mL in test [2], in test [3] and in test [4] were 47 ± 2.8%, 42.4 ± 4.9% and 44.2 ± 3.4%, respectively. In addition, the pest or weed control at 400 µg/mL in test [1] (setting [6]) came to 20%.
For `Cc1ccc(S(=O)(=O)n2c3ccc(C#N)cc3c3c2cc2ccccc2[n+]3C)cc1` [Example 8], the inhibition at 500 µg/mL came out at 18.8 ± 4.2% in test [2], 23.1 ± 0.5% in test [3] and 18.6 ± 1.2% in test [4]. Moreover, the pest or weed control at 400 µg/mL in test [1] (setting [6]) is 30%.
As to `CCNCCNc1c2ccccc2[n+](C)c2c1[nH]c1ccccc12` [Example 37], the inhibition at 500 µg/mL is 31.6 ± 3.2% in test [2], 20.7 ± 1.2% in test [3] and 33.6 ± 0.8% in test [4]. The pest or weed control at 400 µg/mL in test [1] (setting [5]) stood at 40%.
For the molecule `C[n+]1c2ccccc2c(NC2CCNCC2)c2[nH]c3ccccc3c21` [Example 41], in test [2] (setting [12]), the TMV activity result is “better TMV activity than the ribavirin”. Also, the inhibition at 500 µg/mL worked out at 40.8 ± 4.7% in test [2], 34.1 ± 2.3% in test [3] and 30.6 ± 4% in test [4]. In test [1] (setting [5]), the pest or weed control at 400 µg/mL was determined as 40%.
Turning to `C[n+]1c2ccccc2c(NC2CCNC2)c2[nH]c3ccccc3c21` (stereo not drawn) [Example 40], the TMV activity result in test [2] (setting [12]) is “better TMV activity than the ribavirin”. Besides, the inhibition at 500 µg/mL in test [2] is 45.8 ± 3.8%; in test [3], 39.5 ± 3.1%; in test [4], 38.6 ± 2.5%. In addition, in test [1] (setting [5]), the pest or weed control at 400 µg/mL amounted to 20%.
`COc1ccc2c(c1)cc1c(c3ccccc3n1S(=O)(=O)c1ccc(C)cc1)[n+]2C` [Example 10]: the inhibition at 500 µg/mL in test [2] was determined as 17 ± 1%; in test [3], 10.2 ± 0.7%; in test [4] it was 19.1 ± 0.2%. In addition, the pest or weed control at 400 µg/mL in test [1] (setting [6]) was 30%.
Consider `C[n+]1c2ccccc2c(NC2CCCC2)c2[nH]c3ccccc3c21` [Example 29], for which the results for the inhibition at 500 µg/mL in test [2], in test [3] and in test [4] were 38.6 ± 4.6%, 36.5 ± 2.3% and 30.5 ± 0.9%, respectively. In addition, the pest or weed control at 400 µg/mL in test [1] (setting [5]) turned out to be 30%.
